A word on the IC50: it is the point on the concentration scale where inhibition reaches its midpoint. Low values mean greater potency, high ones weaker potency. By melting point is commonly meant the temperature, or range, at which the solid turns liquid.

The test system of data set [1] is Aβ42. Nature of the data set: Screening for γ-secretase-modulating activity, Method 2: Aβ42 Alphalisa in supernatant of SKNBE2 cells carrying APP 695 wild type (Table 12c). Format: cell-based. The settings on record: Method 2, Table 12c, incubated overnight. The method in brief: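 SKNBE2 cells expressing wild-type APP695, 10^4 cells/well, exposed to compound overnight at 37 °C; secreted Aβ42 and Aβtotal in supernatant measured by AlphaLISA sandwich immunoassays (Aβ42: C-terminal/N-terminal antibodies; Aβtotal: N-terminal/4G8). IC50 from 4-parameter fit of % untreated control.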
Background: In Alpha technology, singlet oxygen from a donor bead excites a nearby acceptor bead.

Data set [2] deals with Aβtotal. The data set can be described thus: Demonstration of in vivo efficacy: Aβtotal lowering in brain after single oral dose (Table 13). The settings on record: mouse brain soluble fraction, mean, compared to untreated animals. An excerpt:
To determine whether acute administration of an Aβ42 lowering agent would reduce Aβ42 levels in vivo, non-transgenic rodents, e.g. mice or rats were used. Alternatively, two to three month old Tg2576 mice expressing APP695 containing the “Swedish” variant can be used or a transgenic mouse model developed by Dr. Fred Van Leuven (K. U. Leuven, Belgium) and co-workers, with neuron-specific expression of a clinical mutant of the human amyloid precursor protein [V717I] (Moechars et al., 1999 J. Biol. Chem. 274, 6483). Young transgenic mice have high levels of Aβ in the brain but no detectable Aβ deposition. At approximately 6-8 months of age, the transgenic mice start to display spontaneous, progressive accumulation of β-amyloid (Aβ) in the brain, eventually resulting in amyloid plaques within the subiculum, hippocampus and cortex. Animals treated with the Aβ42 lowering agent were examined and compared to those untreated or treated with vehicle and brain levels of soluble Aβ42 and total Aβ would be quantitated by standard techniques, for example, using ELISA. Treatment periods varied from hours to days and were adjusted based on the results of the Aβ42 lowering once a time course of onset of effect could be established.
A typical protocol for measuring Aβ42 lowering in vivo is shown but it is only one of many variations that could be used to optimize the levels of detectable Aβ. For example, Aβ42 lowering compounds were formulated in 20% of Captisol® (a sulfobutyl ether of β-cyclodextrin) in water or 20% hydroxypropyl β cyclodextrin. The Aβ42 lowering agents were administered as a single oral dose or by any acceptable route of administration to overnight fasted animals. After four hours, the animals were sacrificed and Aβ42 levels were analysed.
Blood was collected by decapitation and exsanguinations in EDTA-treated collection tubes. Blood was centrifuged at 1900 g for 10 minutes at 4° C. and the plasma recovered and flash frozen for later analysis. The brain was removed from the cranium and hindbrain. The cerebellum was removed and the left and right hemisphere were separated. The left hemisphere was stored at −18° C. for quantitative analysis of test compound levels. The right hemisphere was rinsed with phosphate-buffered saline (PBS) buffer and immediately frozen on dry ice and stored at −80° C. until homogenization for biochemical assays.
Mouse brains were resuspended in 10 volumes of 0.4% DEA (diethylamine)/50 mM NaCl pH 10 (for non-transgenic animals) or 0.1% 3-[3-cholamidopropyl)-dimethyl-ammonio]-1-propanesulfonate (CHAPS) in tris buffered saline (TBS) (for transgenic animals) containing protease inhibitors (Roche-11873580001 or 04693159001) per gram of tissue, e.g. for 0.158 g brain, add 1.58 ml of 0.4% DEA. All samples were sonicated for 30 seconds on ice at 20% power output (pulse mode). Homogenates were centrifuged at 221.300×g for 50 min. The resulting high speed supernatants were then transferred to fresh tubes and were optionally further purified before the next step. A portion of the supernatant was neutralized with 10% 0.5 M Tris-HCl and this was used to quantify Aβtotal. […]
In this model at least 20% Aβ42 lowering compared to untreated animals would be advantageous.

`COc1cccc(-c2cn3cccc(Nc4ccc(-n5cnc(C)c5)c(OC)c4)c3n2)c1` [Compound 33] returned an IC50 in data set [1] (Homo sapiens) of 71 nM. Moreover, the “Aβtotal (% Ctrl)_Mean” value in data set [2] is given as 98 % Ctrl.
For `COc1cc(Nc2cccn3c(Cl)c(-c4ccc(F)cc4)nc23)ccc1-n1cnc(C)c1` [Compound 2], the melting point is 168.9 °C. Moreover, the “Aβtotal (% Ctrl)_Mean” value in data set [2] is 106 % Ctrl.
For `COc1nc(Nc2cccn3c(C)c(-c4ccccc4C(F)(F)F)nc23)ccc1-n1cnc(C)c1` [Compound 138], the IC50 in data set [1] was found to be 5 nM. The “Aβtotal (% Ctrl)_Mean” value in data set [2] amounted to 102 % Ctrl.
`COc1cc(Nc2cccn3cc(C)nc23)ccc1-n1cnc(C)c1` [Compound 50]: the IC50 in data set [1] (Homo sapiens) was found to be 309 nM. The “Aβtotal (% Ctrl)_Mean” value in data set [2] came out at 96 % Ctrl.
Turning to `COc1cc(Nc2cccn3c(C)c(-c4c(F)cccc4F)nc23)ccc1-n1cnc(C)c1` [Compound 27], the melting point came out at 198.2 °C. Moreover, the “Aβtotal (% Ctrl)_Mean” value in data set [2] amounted to 94 % Ctrl.
`Cc1ncn(-c2ccc(Nc3cccn4cc(-c5ccccc5C)nc34)cc2)n1` [Compound 71] showed an IC50 in data set [1] (Homo sapiens) of 407 nM. The “Aβtotal (% Ctrl)_Mean” value in data set [2] stood at 103 % Ctrl.
Taken in the same sequence, the figures for `COc1cc(Nc2cccn3cc(C4CCOCC4)nc23)ccc1-n1cnc(C)c1` [Compound 4] were 166 nM and 111 % Ctrl.
In turn, `COc1cc(Nc2cccn3c(C)c(-c4ccccc4)nc23)ccc1-n1cnc(C)c1` [Compound 5] displayed a melting point of 177.8 °C. In addition, in data set [2], the “Aβtotal (% Ctrl)_Mean” value is 96 % Ctrl.
`COc1cc(Nc2cccn3c(C)c(-c4ccccc4C(F)(F)F)nc23)ccc1-n1cnc(C)c1` [Compound 29] returned a half-inhibitory concentration (IC50) in data set [1] (Homo sapiens) of 13 nM. Besides, the “Aβtotal (% Ctrl)_Mean” value in data set [2] came out at 86 % Ctrl.
Regarding `COc1cc(Nc2cccn3c(C)c(-c4ccccc4Cl)nc23)ccc1-n1cnc(C)c1` [Compound 15], the melting point stood at 204 °C. The IC50 in data set [1] (Homo sapiens) was found to be 38 nM. Also, the “Aβtotal (% Ctrl)_Mean” value in data set [2] worked out at 94 % Ctrl.
For `COc1cc(Nc2cccn3cc(-c4ccc(F)cc4)nc23)ccc1-n1cnc(C)c1` [Compound 1], in that order: 209.2 °C, 155 nM and 103 % Ctrl.
